How the values were obtained:
[1] = tested on: primary human melanocytes; experiment: Melanin content assay in primary human melanocytes; assay type: cell-based; settings: for inhibition at 1 µM / inhibition at 10 µM: Homo sapiens, Melanocyte, 72 hrs treatment, corrected for cell numbers, read-out: Average % inhibition of cellular melanin; for reduction of melanin content (in words): primary human melanocytes
Description: (i) Cell Cultures: • Neonatal foreskin primary human melanocytes were procured from Life Technologies, USA. Cells were grown in Medium 254 supplemented with human melanocyte growth supplement-2 and maintained at 37° C. in a humidified incubator with 5% CO2 atmosphere. The maintenance and sub culturing of cells were carried out as per the manufacturer's instructions. Cells between passages 3-6 were used for experimentation.
(ii) Active Addition: • Cells were seeded at a density of 5×10^4/well in a 24 well plate in Melanocyte Growth Media (MGM) and incubated for 24 hrs at 37° C./5% CO2. Actives were added to cells along with relevant controls. 72 hrs post active treatment, cell viability was determined using the Calcein method followed by measurement of cellular melanin content (described in below sections).
(iii) Cell Viability Assay: • Briefly, spent media was removed and cells washed once with 0.2 ml of 1× PBS-Ca—Mg solution. Fresh 1 μM calcein-AM in PBS buffer was added to each well. Plates were incubated for 30 min. at 37° C. in a CO2 incubator. Calcein fluorescence was then measured (excitation at 490 nm and emission at 520 nm) in TECAN M1000 plate reader.
(iv) Melanin Content Assay: • After Calcein measurements, cultures were rinsed with PBS (1×) and lysed for 1 hour at 60° C. in a shaker incubator using NaOH/DMSO mix. Melanin content was measured in a Tecan plate reader (405 nm filter), corrected for cell numbers and represented as % inhibition.

Tyrosinase enzyme = molecular target: T1, Tyrosinase enzyme (Homo sapiens, UniProt P14679); experiment: In vitro human tyrosinase activity assay (melanocytic lysate); assay type: biochemical
T1 construct: Primary human melanocytic lysate was used as a source of Tyrosinase enzyme; endogenous in cells; host or cells: primary human melanocytes (lysate)
T1 sequence (P14679 19-529): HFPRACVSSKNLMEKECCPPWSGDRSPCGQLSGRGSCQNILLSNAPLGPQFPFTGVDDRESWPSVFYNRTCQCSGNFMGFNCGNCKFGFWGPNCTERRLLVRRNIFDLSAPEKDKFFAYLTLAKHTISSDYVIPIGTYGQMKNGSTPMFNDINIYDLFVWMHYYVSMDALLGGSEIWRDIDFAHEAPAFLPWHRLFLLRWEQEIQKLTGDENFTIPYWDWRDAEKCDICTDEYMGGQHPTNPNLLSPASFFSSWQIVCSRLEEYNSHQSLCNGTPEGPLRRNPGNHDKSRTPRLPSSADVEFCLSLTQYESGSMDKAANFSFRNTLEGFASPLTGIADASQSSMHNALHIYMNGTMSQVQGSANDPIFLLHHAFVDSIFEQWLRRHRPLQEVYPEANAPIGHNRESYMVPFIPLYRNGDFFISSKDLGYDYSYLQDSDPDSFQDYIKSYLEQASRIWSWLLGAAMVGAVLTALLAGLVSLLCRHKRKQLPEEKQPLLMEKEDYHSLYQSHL
Description: (v) In Vitro Human Tyrosinase Activity Assay: • Primary human melanocytic lysate was used as a source of Tyrosinase enzyme. Human melanocytic lysate and test actives (at different concentrations) were incubated together for 15 mins, prior to addition of Tyrosine/DOPA substrate mix. Assay plate was then incubated at 37° C. for ˜14-16 hrs. Optical Density was measured at 405 nm and % inhibition of Tyrosinase activity calculated. Results

SMILES	inhibition at 1 µM [1]	inhibition at 10 µM [1]	reduction of melanin content (in words) ([1]; concentration not specified)	direct modulation / inhibition of Tyrosinase enzyme activity (in words) (Tyrosinase enzyme)	inhibition at 1 µM (Tyrosinase enzyme; 1 μM)	inhibition at 5 µM (Tyrosinase enzyme; 5 μM)	inhibition at 10 µM (Tyrosinase enzyme; 10 μM)	inhibition at 50 µM (Tyrosinase enzyme; 50 μM)	reduction of melanin content (in words) ([1]; at 1 μM)	reduction of melanin content (in words) ([1]; at 10 μM)
CCCCCCc1ccc(O)cc1O [4-HR, 4-Hexylresorcinol]	11%	38%	significant reduction in melanin content	through direct modulation of Tyrosinase enzyme activity	28%	55%	78%	78%	–	–
CNC(=O)[C@H](Cc1c[nH]c2ccccc12)NC(=O)[C@@H](CC(=O)NO)CC(C)C [Galardin, (R)-N4-Hydroxy-N1-[(S)-2-(1H-indol-3-yl)-1-methylcarbamoyl-ethyl]-2-isobutyl-succinamide]	7%	17%	–	–	–	–	–	–	no reduction	modest reduction

Reference: patent US10166412B2, “Skin lightening composition comprising 4-hexylresorcinol and ilomastat” (Conopco, Inc., priority 2014, dated 2019)
